Molecular target: T1, chicken gizzard smooth muscle myosin subfragment-1 chemically crosslinked to cardiac or skeletal actin (Gallus gallus, UniProt P10587)
T1 construct: chicken gizzard smooth muscle myosin subfragment-1; from tissue; host or cells: chicken gizzard
Test: Smooth muscle myosin ATPase dose response assay (pyruvate kinase/horseradish peroxidase/pyruvate oxidase-coupled, amplex red fluorescence)
Type: biochemical
Details: read-out: IC50 Arithmetic Mean
Summary of the method: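 Amplex red fluorescence (480 nm excitation, 615 nm emission) tracked ATP hydrolysis by smooth muscle S1 crosslinked to actin with carbodiimide/N-hydroxysuccinimide. Reactions contained 0.15 mM ATP and 100 mM KCl at pH 7.00, 22° C. IC50 came from a four-parameter logistic fit.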

T1 sequence (P02607 2-151): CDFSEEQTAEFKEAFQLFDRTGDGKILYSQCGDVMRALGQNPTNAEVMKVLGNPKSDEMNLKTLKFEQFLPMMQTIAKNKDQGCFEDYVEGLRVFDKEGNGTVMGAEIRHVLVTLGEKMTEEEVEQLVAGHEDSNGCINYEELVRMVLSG
T1 sequence (P10587 84-789): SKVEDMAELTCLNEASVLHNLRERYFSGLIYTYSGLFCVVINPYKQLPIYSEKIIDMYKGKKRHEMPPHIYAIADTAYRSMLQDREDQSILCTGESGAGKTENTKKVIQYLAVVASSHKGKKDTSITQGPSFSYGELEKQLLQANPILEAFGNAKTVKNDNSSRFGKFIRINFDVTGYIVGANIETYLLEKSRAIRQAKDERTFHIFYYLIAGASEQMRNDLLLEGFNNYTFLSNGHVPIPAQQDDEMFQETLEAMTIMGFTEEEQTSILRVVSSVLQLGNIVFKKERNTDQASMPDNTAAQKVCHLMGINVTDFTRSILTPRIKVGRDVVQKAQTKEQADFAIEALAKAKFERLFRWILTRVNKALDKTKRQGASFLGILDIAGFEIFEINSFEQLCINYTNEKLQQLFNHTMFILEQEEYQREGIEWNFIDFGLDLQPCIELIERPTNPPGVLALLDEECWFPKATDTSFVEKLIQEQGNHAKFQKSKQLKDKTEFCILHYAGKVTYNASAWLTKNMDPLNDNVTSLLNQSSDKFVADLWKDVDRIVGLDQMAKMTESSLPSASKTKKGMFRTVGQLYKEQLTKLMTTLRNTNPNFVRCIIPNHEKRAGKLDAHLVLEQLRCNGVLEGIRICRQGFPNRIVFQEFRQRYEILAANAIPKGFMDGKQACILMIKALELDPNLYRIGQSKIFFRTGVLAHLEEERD

Row | Compound | IC50 [nM]
1 | Cn1cc(-c2nc(NCCc3cccc(F)c3)c(C(=O)NC[C@H]3CCCN3C(=O)[C@H](CCCNC(=O)OC(C)(C)C)NC(=O)OC(C)(C)C)cc2F)cn1 [N-[((2R)-1-{(2S)-2,5-bis[(tert-butoxy)carbonylamino]pentanoyl}pyrrolidin-2-yl)methyl](5-fluoro-2-{[2-(3-fluorophenyl)ethyl]amino}-6-(1-methylpyrazol-4-yl)(3-pyridyl))carboxamide] | 19600
2 | CC(C)(C)OC(=O)N[C@@H](CO)C(=O)N1CCC[C@@H]1CNC(=O)c1cc(F)c(-c2cn[nH]c2)nc1NCCc1cccc(F)c1 [N-[((2R)-1-{(2S)-2-[(tert-butoxy)carbonylamino]-3-hydroxypropanoyl}pyrrolidin-2-yl)methyl](5-fluoro-2-{[2-(3-fluorophenyl)ethyl]amino}-6-pyrazol-4-yl(3-pyridyl))carboxamide] | 1000
3 | N#Cc1ccccc1-c1ccc(C(=O)NC[C@H]2CCCN2S(=O)(=O)CCCN2C(=O)c3ccccc3C2=O)c(NCCc2cccc(F)c2)n1 [N-[((2R)-1-{[3-(1,3-dioxobenzo[c]azolin-2-yl)propyl]sulfonyl}pyrrolidin-2-yl)methyl](6-(2-cyanophenyl)-2-{[2-(3-fluorophenyl)ethyl]amino}(3-pyridyl))carboxamide] | 11300
4 | CC(C)(C)OC(=O)NCCCN1CC(=O)N[C@H](CNC(=O)c2ccc(-c3ccccc3C#N)nc2NCCc2cccc(F)c2)C1 [N-[((2R)-4-{3-[(tert-butoxy)carbonylamino]propyl}-6-oxopiperazin-2-yl)methyl](6-(2-cyanophenyl)-2-{[2-(3-fluorophenyl)ethyl]amino}(3-pyridyl))carboxamide] | 9540
5 | Cn1cc(-c2ccc(C(=O)NC[C@H]3CCC(=O)N3)c(NCCc3cccc(F)c3)n2)cn1 [N-[((2R)-5-oxopyrrolidin-2-yl)methyl](2-{[2-(3-fluorophenyl)ethyl]amino}-6-(1-methylpyrazol-4-yl)(3-pyridyl))carboxamide] | 156
6 | O=C1CC[C@H](CNC(=O)c2ccc(-c3cc[nH]n3)nc2NCCc2cccc(F)c2)N1 [N-[((2R)-5-oxopyrrolidin-2-yl)methyl](2-{[2-(3-fluorophenyl)ethyl]amino}-6-pyrazol-3-yl(3-pyridyl))carboxamide] | 355
7 | O=C1CC[C@H](CNC(=O)c2ccc(-c3cn[nH]c3)nc2NCCc2cccc(F)c2)N1 [N-[((2R)-5-oxopyrrolidin-2-yl)methyl](2-{[2-(3-fluorophenyl)ethyl]amino}-6-pyrazol-4-yl(3-pyridyl))carboxamide] | 119
8 | Cn1cc(-c2nc(NCCc3cccc(F)c3)c(C(=O)NC[C@H]3CCC(=O)N3)cc2F)cn1 [N-[((2R)-5-oxopyrrolidin-2-yl)methyl](5-fluoro-2-{[2-(3-fluorophenyl)ethyl]amino}-6-(1-methylpyrazol-4-yl)(3-pyridyl))carboxamide] | 27
9 | N#Cc1ccccc1-c1ccc(C(=O)NC[C@H]2CCC(=O)N2)c(NCCc2cccc(F)c2)n1 [N-[((2R)-5-oxopyrrolidin-2-yl)methyl](6-(2-cyanophenyl)-2-{[2-(3-fluorophenyl)ethyl]amino}(3-pyridyl))carboxamide] | 13
10 | N#Cc1ccccc1-c1ccc(C(=O)NC[C@H]2CCCC(=O)N2)c(NCCc2cccc(F)c2)n1 [N-[((2R)-6-oxo(2-piperidyl))methyl](6-(2-cyanophenyl)-2-{[2-(3-fluorophenyl)ethyl]amino}(3-pyridyl))carboxamide] | 15
11 | N#Cc1ccccc1-c1ccc(C(=O)NC[C@H]2CNCC(=O)N2)c(NCCc2cccc(F)c2)n1 [N-[((2R)-6-oxopiperazin-2-yl)methyl](6-(2-cyanophenyl)-2-{[2-(3-fluorophenyl)ethyl]amino}(3-pyridyl))carboxamide] | 155
12 | O=C(NC[C@H]1CCN1)c1ccc(-c2cn[nH]c2)nc1NCCc1cccc(F)c1 [N-[((2R)azetidin-2-yl)methyl](2-{[2-(3-fluorophenyl)ethyl]amino}-6-pyrazol-4-yl(3-pyridyl))carboxamide] | 5440
13 | Cn1cc(-c2nc(NCCc3cccc(F)c3)c(C(=O)NC[C@H]3CCN3)cc2F)cn1 [N-[((2R)azetidin-2-yl)methyl](5-fluoro-2-{[2-(3-fluorophenyl)ethyl]amino}-6-(1-methylpyrazol-4-yl)(3-pyridyl))carboxamide] | 1580
14 | O=C(NC[C@H]1CCN1)c1cc(F)c(-c2cn[nH]c2)nc1NCCc1cccc(F)c1 [N-[((2R)azetidin-2-yl)methyl](5-fluoro-2-{[2-(3-fluorophenyl)ethyl]amino}-6-pyrazol-4-yl(3-pyridyl))carboxamide] | 466
15 | N#Cc1ccccc1-c1ccc(C(=O)NC[C@H]2CCN2)c(NCCc2cccc(F)c2)n1 [N-[((2R)azetidin-2-yl)methyl](6-(2-cyanophenyl)-2-{[2-(3-fluorophenyl)ethyl]amino}(3-pyridyl))carboxamide] | 413
16 | N#Cc1ccccc1-c1ccc(C(=O)NC[C@H]2CNCCN2)c(NCCc2cccc(F)c2)n1 [N-[((2R)piperazin-2-yl)methyl](6-(2-cyanophenyl)-2-{[2-(3-fluorophenyl)ethyl]amino}(3-pyridyl))carboxamide] | 12200

Row | Compound | IC50 [nM]
17 | Cc1cc(C(=O)NC[C@H]2CCCN2)c(NCCc2cccc(F)c2)nc1-c1cnn(C)c1 [N-[((2R)pyrrolidin-2-yl)methyl](2-{[2-(3-fluorophenyl)ethyl]amino}-5-methyl-6-(1-methylpyrazol-4-yl)(3-pyridyl))carboxamide] | 901
18 | Cn1cc(-c2ccc(C(=O)NC[C@H]3CCCN3)c(NCCc3cccc(F)c3)n2)cn1 [N-[((2R)pyrrolidin-2-yl)methyl](2-{[2-(3-fluorophenyl)ethyl]amino}-6-(1-methylpyrazol-4-yl)(3-pyridyl))carboxamide] | 3180
19 | O=C(NC[C@H]1CCCN1)c1ccc(-c2cn[nH]c2)nc1NCCc1cccc(F)c1 [N-[((2R)pyrrolidin-2-yl)methyl](2-{[2-(3-fluorophenyl)ethyl]amino}-6-pyrazol-4-yl(3-pyridyl))carboxamide] | 4750
20 | Cn1cc(-c2nc(NCCc3cccc(F)c3)c(C(=O)NC[C@H]3CCCN3)cc2Cl)cn1 [N-[((2R)pyrrolidin-2-yl)methyl](5-chloro-2-{[2-(3-fluorophenyl)ethyl]amino}-6-(1-methylpyrazol-4-yl)(3-pyridyl))carboxamide] | 167
21 | Cn1cc(-c2nc(NCCc3cccc(F)c3)c(C(=O)NC[C@H]3CCCN3)cc2C#N)cn1 [N-[((2R)pyrrolidin-2-yl)methyl](5-cyano-2-{[2-(3-fluorophenyl)ethyl]amino}-6-(1-methylpyrazol-4-yl)(3-pyridyl))carboxamide] | 281
22 | N#Cc1cc(C(=O)NC[C@H]2CCCN2)c(NCCc2cccc(F)c2)nc1-c1cn[nH]c1 [N-[((2R)pyrrolidin-2-yl)methyl](5-cyano-2-{[2-(3-fluorophenyl)ethyl]amino}-6-pyrazol-4-yl(3-pyridyl))carboxamide] | 624
23 | Cn1cc(-c2nc(NCCc3cccc(F)c3)c(C(=O)NC[C@H]3CCCN3)cc2F)cn1 [N-[((2R)pyrrolidin-2-yl)methyl](5-fluoro-2-{[2-(3-fluorophenyl)ethyl]amino}-6-(1-methylpyrazol-4-yl)(3-pyridyl))carboxamide] | 275
24 | O=C(NC[C@H]1CCCN1)c1cc(F)c(-c2cn[nH]c2)nc1NCCc1cccc(F)c1 [N-[((2R)pyrrolidin-2-yl)methyl](5-fluoro-2-{[2-(3-fluorophenyl)ethyl]amino}-6-pyrazol-4-yl(3-pyridyl))carboxamide] | 394
25 | N#Cc1ccccc1-c1ccc(C(=O)NC[C@H]2CCCN2)c(NCCc2cccc(F)c2)n1 [N-[((2R)pyrrolidin-2-yl)methyl](6-(2-cyanophenyl)-2-{[2-(3-fluorophenyl)ethyl]amino}(3-pyridyl))carboxamide] | 174
26 | N#Cc1ccccc1-c1nc(NCCc2cccc(F)c2)c(C(=O)NC[C@H]2CCCN2)cc1F [N-[((2R)pyrrolidin-2-yl)methyl](6-(2-cyanophenyl)-5-fluoro-2-{[2-(3-fluorophenyl)ethyl]amino}(3-pyridyl))carboxamide] | 103
27 | N#Cc1ccccc1-c1ccc(C(=O)NC[C@@H]2CCCCN2)c(NCCc2cccc(F)c2)n1 [N-[((2S)(2-piperidyl))methyl](6-(2-cyanophenyl)-2-{[2-(3-fluorophenyl)ethyl]amino}(3-pyridyl))carboxamide] | 1020
28 | CC(=O)N1CCN(C(C)=O)[C@@H](CNC(=O)c2ccc(-c3ccccc3C#N)nc2NCCc2cccc(F)c2)C1 [N-[((2S)-1,4-diacetylpiperazin-2-yl)methyl](6-(2-cyanophenyl)-2-{[2-(3-fluorophenyl)ethyl]amino}(3-pyridyl))carboxamide] | 17200
29 | CC(=O)N1CCN(C)C[C@@H]1CNC(=O)c1ccc(-c2ccccc2C#N)nc1NCCc1cccc(F)c1 [N-[((2S)-1-acetyl-4-methylpiperazin-2-yl)methyl](6-(2-cyanophenyl)-2-{[2-(3-fluorophenyl)ethyl]amino}(3-pyridyl))carboxamide] | 6790
30 | CC(=O)N1CCC[C@H]1CNC(=O)c1ccc(-c2ccccc2)nc1NCCc1ccccn1 [N-[((2S)-1-acetylpyrrolidin-2-yl)methyl]{6-phenyl-2-[(2-(2-pyridyl)ethyl)amino](3-pyridyl)}carboxamide] | 15700
31 | CC(C)(C)OC(=O)NCC(=O)N1CCCC[C@H]1CNC(=O)c1ccc(-c2ccccc2C#N)nc1NCCc1cccc(F)c1 [N-[((2S)-1-{2-[(tert-butoxy)carbonylamino]acetyl}(2-piperidyl))methyl](6-(2-cyanophenyl)-2-{[2-(3-fluorophenyl)ethyl]amino}(3-pyridyl))carboxamide] | 17000
32 | CC(C)(C)OC(=O)NCCC(=O)N1CCCC[C@H]1CNC(=O)c1ccc(-c2ccccc2C#N)nc1NCCc1cccc(F)c1 [N-[((2S)-1-{3-[(tert-butoxy)carbonylamino]propanoyl}(2-piperidyl))methyl](6-(2-cyanophenyl)-2-{[2-(3-fluorophenyl)ethyl]amino}(3-pyridyl))carboxamide] | 8640

Source: patent publication US7932270B2 (Cytokinetics, Inc., priority 2006, dated 2011)
